In patent US20230184744A1, “INTERTUMORAL HOMOGENEITY DETERMINED BY MiCK ASSAY” (Pierian Biosciences, LLC, priority 2014, published 2023):
Like-named read-outs stand apart in the source and are kept apart here.

How the values were obtained:
[1] = tested on: NSCLC, bilateral well-differentiated adenocarcinoma (site 1A); test: MiCK assay, drug-induced apoptosis, Table 3 tumor B1; assay type: cell-based, human
Source text: (§1) Data were obtained optically using Mie light-scattering.
(§2) Do a test well. […] Look at the well under the inverted microscope. […] Repeat until optimal cell concentration is found. Plate the cells into the wells.

[2] = tested on: NSCLC, multi-focal, recurrent adenocarcinoma (right lung); test: MiCK assay, drug-induced apoptosis, Table 3 tumor D1; assay type: cell-based, human
Source text: as §1, §2

[3] = tested on: NSCLC, bilateral well-differentiated adenocarcinoma (site 1B); test: MiCK assay, drug-induced apoptosis, Table 3 tumor B2; assay type: cell-based, human
Source text: as §1, §2

[4] = tested on: Lung adenocarcinoma (site B); test: MiCK assay, drug-induced apoptosis, Table 4 tumor C2
Protocol: (§4) After overnight incubation, chemotherapy drugs were added to the wells of the 96-well plate in 5 μL aliquots or to the wells of a 384-well plate in 2.5 μL aliquots using an automated pipettor. The number of drugs or drug combinations and the number of concentrations tested depended on the number of viable malignant cells that were isolated from the tumor specimen. The drug concentrations, determined by molarity, were those indicated by the manufacturer as the desired blood level concentration plus or minus one serial dilution if enough cells were available.
(§5) Following drug addition, the plate was incubated for 30 min. at 37° C. in a 5% carbon dioxide humidified atmosphere incubator. Each well was then overlayed with sterile mineral oil, and the plate was placed into the incubator chamber of a microplate spectrophotometric reader. The optical density at 600 nanometers was read and recorded every 5 minutes over a period of 48 hours. Optical density increases, which correlates with apoptosis, were converted to kinetic units (KU) of apoptosis by a proprietary software ProApo with a formula described in the Kravtsov reference incorporated by reference (i.e. Kravtsov V. et al. “Use of the Microculture Kinetic Assay of apoptosis to determine chemosensitivities of leukemias.” Blood 1998; 92:968-980).
(§6) Purified tumor cells were cultured for 48 hours with individual drugs, and drug-induced apoptosis was measured using the MiCK assay as described in Example 1. Data were obtained optically using Mie light-scattering.

[5] = tested on: NSCLC, multi-focal, recurrent adenocarcinoma (site A); test: MiCK assay, drug-induced apoptosis, Table 3 tumor C1; assay type: cell-based, human
Source text: as §1, §2

[6] = tested on: NSCLC, multi-focal adenocarcinoma (site A); test: MiCK assay, drug-induced apoptosis, Table 3 tumor E1; assay type: cell-based, human
Source text: as §1, §2

[7] = tested on: NSCLC, multi-focal, recurrent adenocarcinoma (site B); test: MiCK assay, drug-induced apoptosis, Table 3 tumor C2; assay type: cell-based, human
Source text: as §1, §2

[8] = tested on: Lung adenocarcinoma (pleural effusion); test: MiCK assay, drug-induced apoptosis, Table 4 tumor B1; assay type: cell-based, human
Source text: as §1
(§3) Patients: Three patients were included in this study. […] Patient A was diagnosed with pancreatic islet cell cancer; sample 1 was collected from lymph node and sample 2 was collected from the primary tumor. Patient B was diagnosed with lung cancer NSCLC adenocarcinoma; sample 1 was collected from pleural effusion and sample 2 was collected from solid tumor. […] Ages of the patients ranged from 51-79 years old with an average age of 65 years. One patient was […] and two were female.

[9] = tested on: Lung adenocarcinoma (solid tumor); test: MiCK assay, drug-induced apoptosis, Table 4 tumor B2; assay type: cell-based, human
Source text: as §1, §3

[10] = tested on: Lung small cell carcinoma (site A); test: MiCK assay, drug-induced apoptosis, Table 4 tumor C1
Protocol: as §4
(§7) Following drug addition, the plate was incubated for 30 min. at 37° C. in a 5% carbon dioxide humidified atmosphere incubator. Each well was then overlayed with sterile mineral oil, and the plate was placed into the incubator chamber of a microplate spectrophotometric reader. The optical density at 600 nanometers was read and recorded every 5 minutes over a period of 48 hours.
(§8) Patients: Three patients were included in this study. Two tumor samples from different tumor sites were collected from each patient. Both samples from each patient were collected on the same day.

[11] = tested on: Pancreatic islet cell cancer (lymph node); test: MiCK assay, drug-induced apoptosis, Table 4 tumor A1
Protocol: as §4, §7, §8

[12] = tested on: NSCLC, multi-focal adenocarcinoma (site B); test: MiCK assay, drug-induced apoptosis, Table 3 tumor E2; assay type: cell-based, human
Source text: as §1, §2

[13] = tested on: NSCLC, multi-focal, recurrent adenocarcinoma (lymph node); test: MiCK assay, drug-induced apoptosis, Table 3 tumor D2; assay type: cell-based, human
Source text: as §1, §2

[14] = tested on: Pancreatic islet cell cancer (primary tumor); test: MiCK assay, drug-induced apoptosis, Table 4 tumor A2; details: 48 hours with drug
Protocol: as §4, §5, §6

[15] = tested on: Probable mesothelioma (pleural effusion); test: MiCK assay, drug-induced apoptosis, Table 3 tumor A2; assay type: cell-based, human
Protocol: as §1
When the optimal cell concentration is reached, put the cells in the plate and incubate overnight in the incubating chamber of the incubator (37° C.).

[16] = Table 3 tumor B1: NSCLC, bilateral well-differentiated adenocarcinoma (site 1A), 48 hours with drug
[17] = Table 3 tumor D1: NSCLC, multi-focal, recurrent adenocarcinoma (right lung), 48 hours with drug
[18] = Table 3 tumor B2: NSCLC, bilateral well-differentiated adenocarcinoma (site 1B), 48 hours with drug
[19] = Table 4 tumor C2: Lung adenocarcinoma (site B), 48 hours with drug
[20] = Table 3 tumor C1: NSCLC, multi-focal, recurrent adenocarcinoma (site A), 48 hours with drug
[21] = Table 3 tumor E1: NSCLC, multi-focal adenocarcinoma (site A), 48 hours with drug
[22] = Table 3 tumor C2: NSCLC, multi-focal, recurrent adenocarcinoma (site B), 48 hours with drug
[23] = Table 4 tumor B1: Lung adenocarcinoma (pleural effusion), 48 hours with drug
[24] = Table 4 tumor B2: Lung adenocarcinoma (solid tumor), 48 hours with drug
[25] = Table 4 tumor C1: Lung small cell carcinoma (site A), 48 hours with drug
[26] = Table 4 tumor A1: Pancreatic islet cell cancer (lymph node), 48 hours with drug
[27] = Table 3 tumor E2: NSCLC, multi-focal adenocarcinoma (site B), 48 hours with drug
[28] = Table 3 tumor D2: NSCLC, multi-focal, recurrent adenocarcinoma (lymph node), 48 hours with drug
[29] = Table 3 tumor A2: Probable mesothelioma (pleural effusion), 48 hours with drug

SMILES | kinetic units (KU) of apoptosis [1, 16] [KU] | kinetic units (KU) of apoptosis [2, 17] [KU] | kinetic units (KU) of apoptosis [3, 18] [KU] | kinetic units (KU) of apoptosis [4, 19] [KU] | kinetic units (KU) of apoptosis [5, 20] [KU] | kinetic units (KU) of apoptosis [6, 21] [KU] | kinetic units (KU) of apoptosis [7, 22] [KU] | kinetic units (KU) of apoptosis [8, 23] [KU] | kinetic units (KU) of apoptosis [9, 24] [KU] | kinetic units (KU) of apoptosis [10, 25] [KU] | kinetic units (KU) of apoptosis [11, 26] [KU] | kinetic units (KU) of apoptosis [12, 27] [KU] | kinetic units (KU) of apoptosis [13, 28] [KU] | kinetic units (KU) of apoptosis [14] [KU] | kinetic units (KU) of apoptosis [15, 29] [KU] | other results
N.N.O=C([O-])C1(C(=O)[O-])CCC1.[Pt+2] [Carboplatin] | 1.90 | 1.00 | 2.20 | 2.60 | 0.40 | 0.30 | 1.20 | 1.20 | 2.40 | 5.30 | 1.08 | 0.30 | 0.80 | 1.48 | 1.50 | 
COc1cccc2c1C(=O)c1c(O)c3c(c(O)c1C2=O)C[C@@](O)(C(=O)CO)C[C@@H]3O[C@H]1C[C@H](N)[C@H](O)[C@H](C)O1 [Doxorubicin] | 1.70 | 1.50 | 0.90 | 0.90 | 0.80 | 1.60 | 1.50 | 3.50 | 3.50 | 1.60 | 1.27 | 1.50 | 1.40 | 2.06 | 3.80 | 
CC(=O)O[C@H]1C(=O)[C@@]2(C)[C@H]([C@H](OC(=O)c3ccccc3)[C@]3(O)C[C@H](OC(=O)[C@H](O)[C@@H](NC(=O)c4ccccc4)c4ccccc4)C(C)=C1C3(C)C)[C@]1(OC(C)=O)CO[C@@H]1C[C@@H]2O [Paclitaxel] | 1.70 | 1.40 | 0.90 | 3.60 | 0.00 | 0.00 | 1.00 | 3.00 | 4.00 | 1.70 | 3.43 | 0.50 | 0.90 | 2.06 | 1.40 | 
O=P1(N(CCCl)CCCl)NCCCO1 (centres unmarked) [4HC (Cytoxan), Cytoxan] |  |  |  |  |  |  |  |  |  |  |  |  |  |  |  | kinetic units (KU) of apoptosis [1]: 1.10 KU; kinetic units (KU) of apoptosis [2]: 1.20 KU; kinetic units (KU) of apoptosis [3]: 1.20 KU; kinetic units (KU) of apoptosis [4]: 2.40 KU; kinetic units (KU) of apoptosis [5]: 0.60 KU; kinetic units (KU) of apoptosis [6]: 0.50 KU; kinetic units (KU) of apoptosis [7]: 0.00 KU; kinetic units (KU) of apoptosis [8]: 1.20 KU; kinetic units (KU) of apoptosis [9]: 2.40 KU; kinetic units (KU) of apoptosis [10]: 1.80 KU; kinetic units (KU) of apoptosis [11]: 3.00 KU; kinetic units (KU) of apoptosis [12]: 0.30 KU; kinetic units (KU) of apoptosis [13]: 1.20 KU; kinetic units (KU) of apoptosis [15]: 3.10 KU
CC(=O)O[C@@]12CO[C@@H]1C[C@H](O)[C@@]1(C)C(=O)[C@H](O)C3=C(C)[C@@H](OC(=O)[C@H](O)[C@@H](NC(=O)OC(C)(C)C)c4ccccc4)C[C@@](O)([C@@H](OC(=O)c4ccccc4)[C@H]21)C3(C)C [Docetaxel] | 2.60 | 0.50 | 2.00 | 2.10 | 0.90 | 0.90 | 2.30 | 4.20 | 2.40 | 3.20 | 3.20 | 0.20 | 0.70 | 2.65 | 1.10 | 
N.N.[Cl][Pt][Cl] [Cisplatin] | 1.50 | 1.00 | 2.10 | 5.40 | 0.00 | 0.80 | 2.10 | 2.20 | 2.20 | 6.40 | 1.31 | 0.50 | 1.00 | 1.75 | 2.80 | 
